Where a chain is given by its changes, count along the chain named.
Key:
[1] = target: T1, CK1δ R127Q (Homo sapiens, UniProt P48730, R127Q); assay: in vitro kinase assay, CK1δ mutant R127Q; format: biochemical; conditions: 10 µM inhibitor, Figure 5b
T1 sequence (P48730 1-415 R127Q): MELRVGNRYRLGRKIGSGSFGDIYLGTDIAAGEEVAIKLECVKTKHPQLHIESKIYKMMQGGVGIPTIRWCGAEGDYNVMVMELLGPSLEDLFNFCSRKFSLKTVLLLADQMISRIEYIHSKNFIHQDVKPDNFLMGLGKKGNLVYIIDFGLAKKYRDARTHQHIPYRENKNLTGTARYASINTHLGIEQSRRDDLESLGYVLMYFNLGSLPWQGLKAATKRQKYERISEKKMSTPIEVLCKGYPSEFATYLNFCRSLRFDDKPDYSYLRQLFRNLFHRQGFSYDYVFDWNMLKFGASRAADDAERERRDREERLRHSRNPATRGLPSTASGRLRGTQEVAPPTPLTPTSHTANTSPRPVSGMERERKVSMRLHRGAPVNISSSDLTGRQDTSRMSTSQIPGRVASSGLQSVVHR
Description: (§1) Overexpression and purification of GST-CK1δ fusion proteins, either wild type or mutant, were performed as described previously.
(§2) Each kinase assay reaction was performed in kinase buffer (25 mM Tris-HCl (pH 7.5), 10 μM ATP, 10 mM MgCl2, 100 μM EDTA) in presence of purified GST-CK1δ kinase as source of enzyme (either wild type or mutant), an assay-specific substrate (α-casein, GST-p53^1−64, or GST-β-catenin^1−181), and radiolabeled ATP (2 μCi [γ-^32P]-ATP). For performing Michaelis–Menten analysis increasing substrate concentrations were used (α-casein: 0.39−25 μM; GST-p53^1−64: 0.09−1.87 μM; GST-β-catenin^1−181: 0.07−1.32 μM). For biological evaluation of small molecule inhibitors (SMIs), each inhibitor compound was either tested at 10 μM concentration for initial screening or by using a dilution series (0.005−10 µM) for determination of IC50 values. DMSO was used as control. Reactions were incubated for 30 min at 30 °C and reactions were stopped using 5x SDS-loading buffer (250 mM Tris-HCl [pH 6.8], 25% (v/v) β-mercaptoethanol (MSH), 50% (v/v) glycerol, 10% (w/v) SDS, 0.5% (w/v) bromphenol blue). Subsequently, samples were separated by SDS-PAGE using 12.5% acrylamide gels, stained with Coomassie, and phosphorylated substrates were visualized on X-ray film. Incorporation of radiolabeled phosphate was quantified by scintillation counting of Coomassie-stained substrate bands. Defined dilutions of the reaction master mix were counted as well in order to convert results obtained as counts per minute (CPM) to units of transferred phosphate in pmol/min. Michaelis–Menten analysis was performed using GraphPad Prism 6 (GraphPad Software, San Diego, CA, USA).

[2] = target: CK1ε (Homo sapiens, UniProt P49674); assay: in vitro kinase assay, CK1ε; format: biochemical; conditions: 10 µM inhibitor, initial screening
Sequence of CK1ε (P49674 whole entry): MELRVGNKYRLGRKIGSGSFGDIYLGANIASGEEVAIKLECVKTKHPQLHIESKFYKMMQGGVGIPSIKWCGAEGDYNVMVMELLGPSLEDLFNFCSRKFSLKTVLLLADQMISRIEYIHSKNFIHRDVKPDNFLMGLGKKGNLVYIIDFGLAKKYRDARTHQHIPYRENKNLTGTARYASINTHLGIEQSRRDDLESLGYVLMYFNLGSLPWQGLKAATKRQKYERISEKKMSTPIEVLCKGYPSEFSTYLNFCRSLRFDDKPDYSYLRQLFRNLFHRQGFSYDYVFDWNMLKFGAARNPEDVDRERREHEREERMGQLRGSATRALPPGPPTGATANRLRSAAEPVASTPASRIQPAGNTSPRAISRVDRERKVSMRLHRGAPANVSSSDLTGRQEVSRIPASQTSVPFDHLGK

[3] = test system: HeLa CK1δ−/− cells; assay: MTT viability assay, HeLa CK1δ−/− cells; format: cell-based; conditions: 25 μM, 48 h
Description: (§3) Parental HeLa cells, as well as HeLa CSNK1D knock-out cells (CK1δ^−/−) (generated by CRISP/Cas9 technology and provided by EDIGENE, Beijing, China), were cultured in Dulbecco’s Modified Eagle medium (DMEM). HCT-116 and HT-29 colon cancer cells were cultured in McCoy’s 5A medium whereas SW480 and SW620 colon cancer cells were cultured in Leibovitz’s L-15 medium. All media were supplemented with 10% (v/v) fetal bovine serum (FBS), 100 units/mL penicillin, and 100 µg/mL streptomycin. DMEM-based medium for the culture of HeLa CSNK1D knock-out cells was additionally supplemented with 1 μg/mL puromycin. Cell cultures were maintained at 37 °C in a humidified atmosphere containing 5% CO2. Cells were transfected using Effectene transfection reagent (Qiagen, Hilden, Germany) according to the manufacturer’s instructions. For selection of stably transfected clones, transfected cells were grown in selective medium, containing 0.6 mg/mL of G-418 (Calbiochem-Merck Millipore, Darmstadt, Germany).
(§4) For performing MTT viability assays, cells were seeded in a 96-well plate (5 × 10^4 cells/well for HeLa cells (parental, CK1δ^−/−, or CK1δ^−/− cells stably transfected with wild type or mutant CK1δ), HCT-116, and HT-29 cells or 7.5 × 10^4 cell/well for SW480 and SW620 cells). After 24 h, old medium was replaced with fresh medium containing either the small molecule of interest or DMSO as control. After 48 h of treatment, 10 μL MTT (5 mg/mL) was added and incubated at 37 °C for 4 h. The medium was then gently removed and 100 μL of acidic isopropanol was added (90% (v/v) isopropanol, 10% (v/v) 1 N HCl). Cell culture plates were then shaken for 30 min at room temperature. Absorbance was measured at 570 nm with TriStar^2 LB942 Microplate Reader (Berthold Technologies, Bad Wildbad, Germany) and data analysis was performed using GraphPad Prism 6 (GraphPad Software, San Diego, CA, USA).

[4] = target: CK1α (Homo sapiens, UniProt P48729); assay: in vitro kinase assay, CK1α; format: biochemical; conditions: 10 µM inhibitor, initial screening
Sequence of CK1α (P48729 whole entry): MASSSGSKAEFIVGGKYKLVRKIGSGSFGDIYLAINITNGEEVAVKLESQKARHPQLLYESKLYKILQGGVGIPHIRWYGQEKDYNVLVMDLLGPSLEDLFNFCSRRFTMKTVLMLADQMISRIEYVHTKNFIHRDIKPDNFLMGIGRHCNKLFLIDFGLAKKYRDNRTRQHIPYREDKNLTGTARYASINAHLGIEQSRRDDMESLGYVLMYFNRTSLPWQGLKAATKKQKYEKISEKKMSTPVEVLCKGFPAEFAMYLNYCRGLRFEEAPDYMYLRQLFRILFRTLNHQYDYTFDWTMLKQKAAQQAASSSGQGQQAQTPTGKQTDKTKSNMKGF

[5] = target: CK1δ wild type (GST-CK1δ) (Homo sapiens, UniProt P48730); assay: in vitro kinase assay, GST-CK1δ wild type; format: biochemical; conditions: for Kinase activity of CK1δ in presence of inhibitor: 10 µM inhibitor, initial screening; for IC50: dilution series 0.005−10 µM, mean ± standard error, triplicate
Sequence of CK1δ wild type (GST-CK1δ) (P48730 whole entry): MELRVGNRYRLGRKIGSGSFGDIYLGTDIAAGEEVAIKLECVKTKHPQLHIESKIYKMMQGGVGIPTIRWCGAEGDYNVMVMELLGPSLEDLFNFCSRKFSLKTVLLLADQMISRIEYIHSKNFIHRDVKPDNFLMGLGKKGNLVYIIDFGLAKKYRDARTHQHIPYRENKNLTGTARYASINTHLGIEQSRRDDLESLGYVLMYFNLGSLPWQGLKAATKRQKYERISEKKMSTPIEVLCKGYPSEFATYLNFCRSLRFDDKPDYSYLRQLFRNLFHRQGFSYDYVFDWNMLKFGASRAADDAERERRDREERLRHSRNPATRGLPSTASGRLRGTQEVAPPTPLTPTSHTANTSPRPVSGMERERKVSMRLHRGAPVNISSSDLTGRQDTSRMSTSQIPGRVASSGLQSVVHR
Description: as §1, §2

[6] = target: T2, CK1δ T67S (Homo sapiens, UniProt P48730, T67S); assay: in vitro kinase assay, CK1δ mutant T67S; format: biochemical; conditions: 10 µM inhibitor, Figure 5a
T2 sequence (P48730 1-415 T67S): T1 sequence (P48730 1-415 R127Q) with T67S, Q127R
Description: as §1, §2

[7] = test system: parental HeLa cells; assay: MTT viability assay, parental HeLa cells; format: cell-based; conditions: 25 μM, 48 h
Description: as §3, with “For selection of stably transfected clones, transfected cells were grown in selective medium, containing 0.6 mg/mL of G-418 (Calbiochem-Merck Millipore, Darmstadt, Germany).” left out
For performing MTT viability assays, cells were seeded in a 96-well plate (5 × 10^4 cells/well for HeLa cells (parental, CK1δ^−/−, or CK1δ^−/− cells stably transfected with wild type or mutant CK1δ), HCT-116, and HT-29 cells or 7.5 × 10^4 cell/well for SW480 and SW620 cells). […] Absorbance was measured at 570 nm with TriStar^2 LB942 Microplate Reader (Berthold Technologies, Bad Wildbad, Germany) and data analysis was performed using GraphPad Prism 6 (GraphPad Software, San Diego, CA, USA).

[8] = target: CK1γ; assay: in vitro kinase assay, CK1γ; format: biochemical; conditions: 10 µM inhibitor, initial screening
[9] = test system: HeLa CK1δ+/+ cells (HeLa CK1δ−/− stably transfected with CK1δ); assay: MTT viability assay, HeLa CK1δ+/+ cells; format: cell-based; conditions: 25 μM, 48 h
Description: as §3, §4

[10] = test system: SW480 colon cancer cells; assay: MTT viability assay, SW480; format: cell-based, human; conditions: 10 µM, 48 h, initial screening (Figure 10a)
Description: as §3, §4

[11] = test system: HT-29 colon cancer cells; assay: MTT viability assay, HT-29; format: cell-based; conditions: 10 µM, 48 h, initial screening (Figure 10a)
Description: as §3, §4

[12] = test system: SW620 colon cancer cells; assay: MTT viability assay, SW620; format: cell-based, human; conditions: 48 h
Description: as §3, §4

Row | SMILES | Inhibition of CK1δ R127Q kinase activity compared to wild type CK1δ [1] | Kinase activity of CK1ε in presence of inhibitor [2] | Effects on cell viability of CK1δ−/− cells compared to parental and/or CK1δ+/+ cells [3] | Kinase activity of CK1α in presence of inhibitor [4] | Kinase activity of CK1δ in presence of inhibitor [5] | IC50 [5] [nM] | Inhibition of CK1δ T67S compared to wild type CK1δ [6] | Effects on cell viability of parental HeLa cells, compared with compounds 18 and 19 [7] | Kinase activity of CK1γ in presence of inhibitor [8] | Cell viability of CK1δ-expressing cells (HeLa parental or CK1δ+/+) compared to CK1δ-deficient cells (HeLa CK1δ−/−) [9] | Reduction of cell viability, SW480 [10] | Reduction of cell viability, HT-29 [11] | Reduction of CK1α activity [4] | Reduction of cell viability, SW620 ([12]; 10 µM, initial screening (Figure 10a)) [%] | Dose-dependent effects on SW620 cell viability ([12]; 0.625 to 20 µM, MTT (Figure S2))
1 | O=C(CSc1nccc(=O)n1-c1ccccc1)Nc1nc2ccc(C(F)(F)F)cc2s1 [Compound 16, 2-((3-Phenyl-4-oxo-3,4-dihydropyrimidin-2-yl)thio)-N-(6-(trifluoromethyl)benzo-[d]thiazol-2-yl)acetamide] | significantly stronger inhibited | strongly inhibited | not reduced | not affected | strongly inhibited | 2000 | slightly stronger | less pronounced | not affected |  |  |  |  |  | 
2 | COc1ccc(OC)c(-n2c(SCC(=O)Nc3nc4ccc(C(F)(F)F)cc4s3)nccc2=O)c1 [Compound 17, 2-((3-(2,5-Dimethoxyphenyl)-4-oxo-3,4-dihydropyrimidin-2-yl)thio)-N-(6-(trifluoromethyl)benzo[d]thiazol-2-yl)acetamide] |  | strongly inhibited | not reduced | not affected | strongly inhibited |  | slightly stronger | less pronounced | not affected |  |  |  |  |  | 
3 | COc1cc(OC)cc(-n2c(SCC(=O)Nc3nc4ccc(C(F)(F)F)cc4s3)nccc2=O)c1 [Compound 19, 2-((3-(3,5-Dimethoxyphenyl)-4-oxo-3,4-dihydropyrimidin-2-yl)thio)-N-(6-(trifluoromethyl)benzo[d]thiazol-2-yl)acetamide] |  | strongly inhibited |  | not affected | strongly inhibited |  |  |  | not affected | more reduced |  |  |  |  | 
4 | O=C(CSc1nccc(=O)n1Cc1ccc(C(F)(F)F)cc1)Nc1nc2ccc(C(F)(F)F)cc2s1 [Compound 21, 2-((3-(4-Trifluoromethylbenzyl)-4-oxo-3,4-dihydropyrimidin-2-yl)thio)-N-(6-(trifluoromethyl)benzo[d]thiazol-2-yl)acetamide] |  | strongly inhibited |  |  | strongly inhibited | 120 |  |  | not affected |  | minor changes | minor changes | at least 50% | ~50 | only visible at the highest concentrations tested
